Measured values reported in US8183204B2, “Methods and compositions for increasing skin remodeling” (Summit Associates International Inc., priority 2000, dated 2012).
Where no end group is shown, it is not given here.

system: surgical incisions on the backs of Swiss-Webster mice; assay: Scar formation after surgical incisions, synthetic peptide-metal complexes injected along the incision line; format: in vivo; conditions: 10 mice each; 1 mg/ml in 0.85% saline, 0.02 ml injected at four sites on each side of incision, immediately after surgery and 24 hours later; rated 0 to 4 (heavy scarring); untreated control 3.6
Description: This Example describes the use of a synthetic peptides complexed with cupric chloride or Tin(II) chloride to reduce post-surgical scarring.
Peptide-copper complexes were dissolved in 0.85% saline at a concentration of 1 milligram per milliliter.
Surgical incisions (1.25 cm) were made on the backs of anesthetized, 35 gram, Swiss-Webster mice. Immediately after surgery and 24 hours later, the 0.02 ml of the peptide complexes were injected at four sites on each side of the incision line. Control wounds were untreated.
For comparison, the amount of scar formation was rated from 0 (little or no scarring) to 4 (heavy scarring).

Row | Compound | Scar Formation score (5 days)
1 | Ala-Gly-His-Copper(II) | 0.3 ± 0.1
2 | Cysteine sulfinic acid-Copper(II) [reference compound] | 2.9 ± 0.5
3 | Ala-Gly-His-Tin(II) | 0.3 ± 0.1
4 | Gly-His-Lys-Copper(II) | 0.2 ± 0.1
5 | Gly-Gly-His-Copper(II) | 0.3 ± 0.2
6 | Phe-Phe-Copper(II) | 0.5 ± 0.3
7 | Gly-His-Lys-His-Copper(II) (GHKH; also: copper(II) complex) | 0.4 ± 0.2
8 | His-Gly-Gly-Copper(II) | 0.5 ± 0.2
9 | Gly-His-Lys-Tin(II) | 0.4 ± 0.1
10 | Gly-Cys-Gly-Copper(II) | 1.4 ± 0.3
11 | His-Gly-Gly-Tin(II) | 0.4 ± 0.2
12 | Gly-His-Lys-His-Tin(II) (GHKH; also: tin(II) complex) | 0.4 ± 0.2
13 | Gly-Gly-Gly-Copper(II) | 0.5 ± 0.3

same assay, conditions: mice, injection along incision line

Row | Compound | post-surgical scar formation compared with control wounds (in words)
14 | N[C@@H](CS(=O)(=O)O)C(=O)O.[Cu+2] [Cysteic acid-Copper(II), reference compound] | much less active
15 | N[C@@H](CCS(=O)(=O)O)C(=O)O.[Cu+2] [Homocysteic acid-Copper(II), reference compound] | much less active
16 | Cysteine sulfinic acid-Copper(II) [reference compound] | much less active
